For 1 molecule, remaining binding results are on record in publication PMC10382584, “Macrocyclization of linear molecules by deep learning to facilitate macrocyclic drug candidates discovery” (Nature Communications, 2023).

What all share (assay): biochemical
What all share (design): DiscoveRx KINOMEscan competition binding, percent of DMSO control signal at 100 nM
What all share (settings): read-out: Fig. 4a / Percent Control / Compound 1; percent of DMSO control, competition binding

Assay [1] deals with T1, ABL1(Q252H)-phosphorylated (Homo sapiens, UniProt P00519, Q252H).
T1 construct: phosphorylated
Protocol: (§1) The kinase selectivity profile was performed by using the DiscoveRx KINOMEscan platform. […] Test compounds were prepared as 40× stocks in 100% DMSO and directly diluted into the assay. The results were defined as a percentage of signal between the negative (DMSO, 100% control) and the positive (control compound, 0% control) control, which was calculated as follows: percent control = [(test compound signal − positive control signal)/(negative control signal − positive control signal)] × 100.

Assay [2] addresses BMPR2 (Homo sapiens, UniProt Q13873).
Protocol: as §1
The target of assay [3] is BUB1 (Homo sapiens, UniProt O43683).
Protocol: as §1
For assay [4], the target named is CDK7 (Homo sapiens, UniProt P50613).
Protocol: as §1
The target in assay [5] is CSNK1A1 (Homo sapiens, UniProt P48729).
Protocol: as §1
In assay [6] the target is CSNK1G3 (Homo sapiens, UniProt Q9Y6M4).
Chain of CSNK1G3 (Q9Y6M4 whole entry): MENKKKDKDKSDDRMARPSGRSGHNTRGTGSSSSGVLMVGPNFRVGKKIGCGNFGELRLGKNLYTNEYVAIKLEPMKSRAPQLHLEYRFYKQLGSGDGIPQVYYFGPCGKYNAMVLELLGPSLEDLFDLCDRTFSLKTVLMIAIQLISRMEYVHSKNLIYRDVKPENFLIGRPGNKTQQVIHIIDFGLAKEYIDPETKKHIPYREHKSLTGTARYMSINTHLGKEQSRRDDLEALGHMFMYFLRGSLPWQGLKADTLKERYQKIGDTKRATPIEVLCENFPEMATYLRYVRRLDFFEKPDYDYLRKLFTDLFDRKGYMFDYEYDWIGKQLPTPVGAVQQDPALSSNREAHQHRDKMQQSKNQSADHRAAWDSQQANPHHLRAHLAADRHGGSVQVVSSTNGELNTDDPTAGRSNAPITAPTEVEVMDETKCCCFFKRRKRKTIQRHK
Protocol: as §1
For assay [7], the target named is DAPK1 (Homo sapiens, UniProt P53355).
Protocol: as §1
In assay [8] the target is FER (Homo sapiens, UniProt P16591).
Chain of FER (P16591 whole entry): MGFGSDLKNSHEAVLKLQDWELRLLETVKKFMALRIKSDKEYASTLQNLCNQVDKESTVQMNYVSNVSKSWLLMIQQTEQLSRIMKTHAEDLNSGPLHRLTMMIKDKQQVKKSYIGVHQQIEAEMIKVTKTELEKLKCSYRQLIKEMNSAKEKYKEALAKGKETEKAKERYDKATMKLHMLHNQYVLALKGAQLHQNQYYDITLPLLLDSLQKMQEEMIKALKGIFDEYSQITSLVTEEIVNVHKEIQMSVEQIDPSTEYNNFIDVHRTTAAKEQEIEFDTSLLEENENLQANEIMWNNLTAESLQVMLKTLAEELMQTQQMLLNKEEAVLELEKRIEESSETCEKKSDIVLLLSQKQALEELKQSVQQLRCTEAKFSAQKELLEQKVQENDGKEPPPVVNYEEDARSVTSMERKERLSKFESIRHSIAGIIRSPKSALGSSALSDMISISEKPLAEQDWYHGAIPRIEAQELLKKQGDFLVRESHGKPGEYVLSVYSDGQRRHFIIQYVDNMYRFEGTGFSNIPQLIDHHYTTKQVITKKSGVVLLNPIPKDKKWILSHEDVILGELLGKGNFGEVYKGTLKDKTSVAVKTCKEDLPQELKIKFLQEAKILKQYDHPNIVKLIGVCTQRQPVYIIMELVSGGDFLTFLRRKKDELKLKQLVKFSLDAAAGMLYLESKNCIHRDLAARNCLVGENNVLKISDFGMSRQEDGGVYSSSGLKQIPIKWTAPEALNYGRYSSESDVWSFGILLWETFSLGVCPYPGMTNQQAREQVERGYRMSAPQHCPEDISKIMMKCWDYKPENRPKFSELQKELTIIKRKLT
Protocol: as §1
Assay [9] addresses FLT3(D835V) (Homo sapiens, UniProt P36888, D835V).
Protocol: as §1
Assay [10] deals with T2, GCN2(Kin.Dom.2,S808G) (Homo sapiens, UniProt Q9P2K8, S808G).
T2 construct: gene EIF2AK4; Kin.Dom.2
Protocol: as §1

Assay [11] deals with T3, ICK (Homo sapiens, UniProt Q9UPZ9).
T3 construct: gene CILK1
Protocol: as §1

Assay [12] has as its target T4, JAK1(JH1domain-catalytic) (Homo sapiens, UniProt P23458).
T4 construct: JH1domain-catalytic
Protocol: as §1

Assay [13] deals with KIT (Homo sapiens, UniProt P10721).
Chain of KIT (P10721 whole entry): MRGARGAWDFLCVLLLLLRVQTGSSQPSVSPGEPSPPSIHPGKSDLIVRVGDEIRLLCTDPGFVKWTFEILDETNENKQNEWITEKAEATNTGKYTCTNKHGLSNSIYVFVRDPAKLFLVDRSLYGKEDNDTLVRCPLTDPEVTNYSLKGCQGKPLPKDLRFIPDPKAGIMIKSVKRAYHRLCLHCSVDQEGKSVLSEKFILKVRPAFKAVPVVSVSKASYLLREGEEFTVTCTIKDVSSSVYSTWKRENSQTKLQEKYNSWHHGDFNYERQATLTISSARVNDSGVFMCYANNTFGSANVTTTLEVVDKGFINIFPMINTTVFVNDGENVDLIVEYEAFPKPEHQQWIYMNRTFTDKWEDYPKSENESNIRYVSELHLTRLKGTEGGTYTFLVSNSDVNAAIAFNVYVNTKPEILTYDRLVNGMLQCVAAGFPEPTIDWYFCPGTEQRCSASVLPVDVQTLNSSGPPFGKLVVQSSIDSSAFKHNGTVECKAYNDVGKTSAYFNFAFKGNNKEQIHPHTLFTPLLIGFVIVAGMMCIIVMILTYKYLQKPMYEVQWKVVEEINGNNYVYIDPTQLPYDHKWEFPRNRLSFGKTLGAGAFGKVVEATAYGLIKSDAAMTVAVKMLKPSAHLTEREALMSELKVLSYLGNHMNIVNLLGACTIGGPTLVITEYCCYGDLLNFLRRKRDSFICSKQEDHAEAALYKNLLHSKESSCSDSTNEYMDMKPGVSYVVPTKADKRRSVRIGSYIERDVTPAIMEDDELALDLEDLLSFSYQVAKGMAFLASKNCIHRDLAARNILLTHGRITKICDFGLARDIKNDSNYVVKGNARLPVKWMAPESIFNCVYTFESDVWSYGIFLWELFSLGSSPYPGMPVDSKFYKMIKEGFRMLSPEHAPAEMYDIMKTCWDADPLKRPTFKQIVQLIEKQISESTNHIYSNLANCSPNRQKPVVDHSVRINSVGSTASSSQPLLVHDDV
Protocol: as §1
For assay [14], the target named is KIT(A829P) (Homo sapiens, UniProt P10721, A829P).
Chain of KIT(A829P) (P10721 whole entry A829P): as the sequence (P10721 whole entry) above, with A829P counted along it
Protocol: as §1
For assay [15], the target named is T5, MLK3 (Homo sapiens, UniProt Q16584).
T5 construct: gene MAP3K11
Protocol: as §1

Assay [16] concerns the target T6, MST1 (Homo sapiens, UniProt Q13043).
T6 construct: gene STK4
Protocol: as §1

Assay [17] concerns the target MYLK4 (Homo sapiens, UniProt Q86YV6).
Protocol: as §1
The target of assay [18] is PAK4 (Homo sapiens, UniProt O96013).
Protocol: as §1
The target in assay [19] is PRKCI (Homo sapiens, UniProt P41743).
Protocol: as §1
Assay [20] addresses T7, PYK2 (Homo sapiens, UniProt Q14289).
T7 construct: gene PTK2B
Protocol: as §1

For assay [21], the target named is T8, RPS6KA4(Kin.Dom.1-N-terminal) (Homo sapiens, UniProt O75676).
T8 construct: Kin.Dom.1-N-terminal
Protocol: as §1

Assay [22] concerns the target T9, RSK1(Kin.Dom.1-N-terminal) (Homo sapiens, UniProt Q15418).
T9 construct: gene RPS6KA1; Kin.Dom.1-N-terminal
Protocol: as §1

In assay [23] the target is SRPK1 (Homo sapiens, UniProt Q96SB4).
Protocol: as §1
For assay [24], the target named is T10, TYK2(JH2domain-pseudokinase) (Homo sapiens, UniProt P29597).
T10 construct: JH2domain-pseudokinase
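Note: KINOMEscan kinase panel binding assay, signal normalized between DMSO as 100% and a positive control compound as 0%.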
Protocol: as §1

Chain of BMPR2 (Q13873 whole entry): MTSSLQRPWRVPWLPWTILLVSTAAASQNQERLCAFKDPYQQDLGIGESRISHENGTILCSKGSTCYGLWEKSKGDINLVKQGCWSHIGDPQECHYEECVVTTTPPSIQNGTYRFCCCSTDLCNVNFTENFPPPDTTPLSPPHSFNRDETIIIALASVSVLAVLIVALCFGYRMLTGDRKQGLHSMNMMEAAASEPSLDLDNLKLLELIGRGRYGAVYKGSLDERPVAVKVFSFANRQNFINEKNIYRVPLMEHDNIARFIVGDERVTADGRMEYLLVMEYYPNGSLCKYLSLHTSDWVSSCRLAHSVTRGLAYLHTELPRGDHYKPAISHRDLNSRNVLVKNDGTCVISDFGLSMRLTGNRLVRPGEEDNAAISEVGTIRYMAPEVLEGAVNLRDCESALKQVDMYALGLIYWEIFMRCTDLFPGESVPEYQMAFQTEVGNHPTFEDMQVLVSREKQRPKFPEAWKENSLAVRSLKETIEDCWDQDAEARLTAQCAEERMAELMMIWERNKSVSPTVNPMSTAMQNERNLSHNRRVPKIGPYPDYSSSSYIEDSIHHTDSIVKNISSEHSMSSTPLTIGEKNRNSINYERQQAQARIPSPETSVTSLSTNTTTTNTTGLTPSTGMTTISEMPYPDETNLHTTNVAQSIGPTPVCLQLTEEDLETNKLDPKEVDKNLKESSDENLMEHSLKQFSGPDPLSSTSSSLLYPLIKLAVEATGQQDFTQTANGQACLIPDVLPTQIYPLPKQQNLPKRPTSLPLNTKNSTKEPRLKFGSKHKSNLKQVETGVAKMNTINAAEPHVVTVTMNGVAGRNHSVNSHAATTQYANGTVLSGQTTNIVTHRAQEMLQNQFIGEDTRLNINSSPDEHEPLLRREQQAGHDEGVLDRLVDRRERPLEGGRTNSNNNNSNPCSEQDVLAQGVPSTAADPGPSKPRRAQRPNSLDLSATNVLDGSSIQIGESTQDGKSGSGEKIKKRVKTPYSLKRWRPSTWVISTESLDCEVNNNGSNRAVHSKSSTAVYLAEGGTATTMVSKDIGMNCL
T7 sequence (Q14289 whole entry): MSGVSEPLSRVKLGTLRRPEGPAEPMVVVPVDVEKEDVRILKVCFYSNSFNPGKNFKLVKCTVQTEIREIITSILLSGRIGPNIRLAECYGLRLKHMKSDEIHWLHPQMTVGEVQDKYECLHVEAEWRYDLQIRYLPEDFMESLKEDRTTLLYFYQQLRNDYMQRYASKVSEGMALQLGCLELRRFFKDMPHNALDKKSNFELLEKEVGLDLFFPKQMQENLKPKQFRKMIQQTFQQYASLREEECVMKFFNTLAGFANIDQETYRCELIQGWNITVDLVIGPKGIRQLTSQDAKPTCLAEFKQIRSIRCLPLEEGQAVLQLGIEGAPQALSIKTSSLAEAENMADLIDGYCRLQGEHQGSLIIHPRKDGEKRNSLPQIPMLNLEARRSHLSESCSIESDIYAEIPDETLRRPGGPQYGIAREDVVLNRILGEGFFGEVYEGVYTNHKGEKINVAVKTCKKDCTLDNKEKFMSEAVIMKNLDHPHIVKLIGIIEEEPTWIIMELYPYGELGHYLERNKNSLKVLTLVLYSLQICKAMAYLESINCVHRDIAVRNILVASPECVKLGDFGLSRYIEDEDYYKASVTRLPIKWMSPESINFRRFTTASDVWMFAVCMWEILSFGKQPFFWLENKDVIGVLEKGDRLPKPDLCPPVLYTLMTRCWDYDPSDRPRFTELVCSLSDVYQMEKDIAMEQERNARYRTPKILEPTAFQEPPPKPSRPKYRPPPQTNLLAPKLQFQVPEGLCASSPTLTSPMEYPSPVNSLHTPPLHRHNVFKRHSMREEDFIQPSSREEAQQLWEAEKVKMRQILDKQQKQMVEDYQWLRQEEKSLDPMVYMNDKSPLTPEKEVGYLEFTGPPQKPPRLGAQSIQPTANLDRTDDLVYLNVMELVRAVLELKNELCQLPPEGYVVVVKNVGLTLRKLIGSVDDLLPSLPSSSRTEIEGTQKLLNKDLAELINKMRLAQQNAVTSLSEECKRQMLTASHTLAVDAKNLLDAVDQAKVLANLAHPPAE
T9 sequence (Q15418 whole entry): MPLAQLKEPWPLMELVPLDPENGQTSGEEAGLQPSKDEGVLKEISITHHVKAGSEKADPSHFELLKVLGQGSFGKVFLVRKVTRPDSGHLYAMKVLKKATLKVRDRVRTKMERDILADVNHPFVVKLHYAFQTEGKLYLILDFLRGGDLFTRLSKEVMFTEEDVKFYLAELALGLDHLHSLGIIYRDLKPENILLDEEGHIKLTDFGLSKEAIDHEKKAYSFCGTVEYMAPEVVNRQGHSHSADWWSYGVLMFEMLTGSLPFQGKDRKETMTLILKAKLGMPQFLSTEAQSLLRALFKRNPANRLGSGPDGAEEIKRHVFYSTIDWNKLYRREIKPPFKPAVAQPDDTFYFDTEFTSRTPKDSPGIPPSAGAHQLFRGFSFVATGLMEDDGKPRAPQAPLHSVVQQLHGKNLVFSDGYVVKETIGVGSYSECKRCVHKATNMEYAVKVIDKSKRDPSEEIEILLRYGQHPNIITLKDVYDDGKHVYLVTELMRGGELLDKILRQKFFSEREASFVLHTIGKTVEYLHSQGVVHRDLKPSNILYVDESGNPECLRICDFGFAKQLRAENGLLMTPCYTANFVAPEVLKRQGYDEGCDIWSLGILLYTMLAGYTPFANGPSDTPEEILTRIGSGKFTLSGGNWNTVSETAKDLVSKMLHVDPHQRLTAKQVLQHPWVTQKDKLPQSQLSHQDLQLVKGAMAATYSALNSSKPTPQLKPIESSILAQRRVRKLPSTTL

`Cc1cnc2nc1Nc1cccc(c1)COCc1cc(ccc1OCCN1CCCC1)N2` [Compound 1]: the remaining binding at 0.1 µM was determined as 59% in assay [1]; 87% in assay [2]; 82% in assay [3]; 77% in assay [4]; 95% in assay [5]; 100% in [6]. In addition, the remaining binding at 0.1 µM in assay [7] was 94%; in [8] it was 87%; in assay [9], 3.3%; in assay [10], 38%; in assay [11], 80%; in assay [12], 32%. In addition, the remaining binding at 0.1 µM worked out at 57% in [13]; 45% in [14]; 94% in assay [15]; 100% in assay [16]; 84% in assay [17]; 100% in assay [18]. For the same molecule, the remaining binding at 0.1 µM in assay [19] is 80%; in assay [20], 82%; in assay [21], 100%; in [22], 97%; in [23], 97%; in assay [24], 64%.
